In patent US12590099B2, “Inhibitors of histone deacetylase useful for the treatment or prevention of HIV infection” (Merck Sharp & Dohme LLC, priority 2018, dated 2026) one finds IC50 data, which are given here for 24 compounds.

What all share (format): biochemical
The target of one assay is T1, Recombinant human HDAC1 (Homo sapiens, UniProt Q13547).
T1 construct: FLAG (C); made in house
Kind of assay: Human HDAC enzyme inhibitor Fluor-de-Lys assay, HDAC1. The conditions noted are these: recombinant human HDAC1, Fluor-de-Lys assay. An outline of the steps:
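Fluor-de-Lys format at room temperature (23° C.): compounds titrated 10-point, 1:3, preincubated with HDAC before substrate addition; HDAC1 run at 0.3 nM enzyme with 20 μM BML-KI104. Developer with excess HDAC inhibitor ends the reaction, and trypsin-liberated AMC fluorescence is the read-out.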

For a further assay, the target named is T2, HDAC6 (Homo sapiens, UniProt Q9UBN7).
T2 sequence (Q9UBN7 1-1215): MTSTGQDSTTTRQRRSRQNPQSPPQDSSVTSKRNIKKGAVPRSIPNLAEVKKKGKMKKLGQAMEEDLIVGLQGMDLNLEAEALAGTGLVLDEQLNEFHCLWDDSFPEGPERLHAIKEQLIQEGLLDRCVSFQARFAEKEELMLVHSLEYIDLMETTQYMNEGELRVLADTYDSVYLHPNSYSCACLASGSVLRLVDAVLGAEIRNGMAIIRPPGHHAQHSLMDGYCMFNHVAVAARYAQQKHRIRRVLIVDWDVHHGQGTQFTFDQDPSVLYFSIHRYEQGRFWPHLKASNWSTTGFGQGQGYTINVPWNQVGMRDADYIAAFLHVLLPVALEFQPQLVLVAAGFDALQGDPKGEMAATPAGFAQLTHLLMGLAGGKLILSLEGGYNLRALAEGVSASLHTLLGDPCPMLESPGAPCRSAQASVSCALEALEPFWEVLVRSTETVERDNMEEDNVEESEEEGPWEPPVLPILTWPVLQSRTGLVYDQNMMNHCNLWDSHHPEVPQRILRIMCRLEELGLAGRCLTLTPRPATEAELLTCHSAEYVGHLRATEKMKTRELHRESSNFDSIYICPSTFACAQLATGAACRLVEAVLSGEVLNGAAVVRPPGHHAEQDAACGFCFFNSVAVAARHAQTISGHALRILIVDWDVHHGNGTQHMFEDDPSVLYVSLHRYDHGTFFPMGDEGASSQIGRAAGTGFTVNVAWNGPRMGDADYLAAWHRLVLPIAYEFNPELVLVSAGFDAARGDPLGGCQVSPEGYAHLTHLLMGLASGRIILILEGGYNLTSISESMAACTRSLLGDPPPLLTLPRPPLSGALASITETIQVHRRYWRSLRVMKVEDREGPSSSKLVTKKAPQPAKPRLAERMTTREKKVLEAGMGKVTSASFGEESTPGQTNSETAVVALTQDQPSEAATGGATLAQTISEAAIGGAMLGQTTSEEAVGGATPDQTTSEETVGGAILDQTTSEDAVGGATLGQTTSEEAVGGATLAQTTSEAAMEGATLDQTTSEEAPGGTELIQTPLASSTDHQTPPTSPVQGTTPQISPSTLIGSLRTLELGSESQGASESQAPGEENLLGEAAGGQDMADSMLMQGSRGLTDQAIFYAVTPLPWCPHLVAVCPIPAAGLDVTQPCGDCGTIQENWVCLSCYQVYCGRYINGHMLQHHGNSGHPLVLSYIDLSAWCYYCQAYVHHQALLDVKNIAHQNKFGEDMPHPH
As to the kind of experiment: Human HDAC enzyme inhibitor Fluor-de-Lys assay, HDAC6. The conditions noted are these: HDAC6, Fluor-de-Lys assay.

Assay [1] concerns the target T3, Recombinant human HDAC3/SMRT heterodimer (Homo sapiens, UniProt O15379).
T3 construct: FLAG (C); made in house
Kind of assay: Human HDAC enzyme inhibitor Fluor-de-Lys assay, HDAC3/SMRT. The conditions noted are these: recombinant human HDAC3/SMRT, Fluor-de-Lys assay.

For the next assay, the target named is T4, Recombinant human HDAC2 (Homo sapiens, UniProt Q92769).
T4 construct: Full length human HDAC2-FLAG was expressed in baculovirus infected Sf9 cells; FLAG (C); made in house; host or cells: Sf9 (baculovirus)
Kind of assay: Human HDAC enzyme inhibitor Fluor-de-Lys assay, HDAC2. The conditions noted are these: recombinant human HDAC2, Fluor-de-Lys assay. The gist of the method:
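Fluor-de-Lys format at room temperature (23° C.): compounds titrated 10-point, 1:3, preincubated with HDAC before substrate addition. Developer with excess HDAC inhibitor ends the reaction, and trypsin-liberated AMC fluorescence is the read-out.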

The structures appear in SMILES notation. pIC50: −log10 of the molar value. Some results are limits rather than exact numbers.

T4 sequence (Q92769 whole entry): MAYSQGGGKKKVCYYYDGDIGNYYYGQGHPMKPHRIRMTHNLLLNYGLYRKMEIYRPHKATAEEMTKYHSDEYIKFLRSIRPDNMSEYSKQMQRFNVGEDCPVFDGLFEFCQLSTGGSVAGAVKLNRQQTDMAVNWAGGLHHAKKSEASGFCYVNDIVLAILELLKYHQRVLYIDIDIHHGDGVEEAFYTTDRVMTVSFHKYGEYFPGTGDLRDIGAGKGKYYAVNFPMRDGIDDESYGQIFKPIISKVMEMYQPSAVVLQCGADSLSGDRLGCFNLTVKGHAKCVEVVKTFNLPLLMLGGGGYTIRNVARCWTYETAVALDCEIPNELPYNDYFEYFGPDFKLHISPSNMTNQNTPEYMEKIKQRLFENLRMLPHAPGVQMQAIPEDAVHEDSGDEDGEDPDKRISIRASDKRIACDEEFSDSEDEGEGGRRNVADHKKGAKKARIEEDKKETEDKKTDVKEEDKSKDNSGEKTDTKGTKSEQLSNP
T1 sequence (Q13547 whole entry): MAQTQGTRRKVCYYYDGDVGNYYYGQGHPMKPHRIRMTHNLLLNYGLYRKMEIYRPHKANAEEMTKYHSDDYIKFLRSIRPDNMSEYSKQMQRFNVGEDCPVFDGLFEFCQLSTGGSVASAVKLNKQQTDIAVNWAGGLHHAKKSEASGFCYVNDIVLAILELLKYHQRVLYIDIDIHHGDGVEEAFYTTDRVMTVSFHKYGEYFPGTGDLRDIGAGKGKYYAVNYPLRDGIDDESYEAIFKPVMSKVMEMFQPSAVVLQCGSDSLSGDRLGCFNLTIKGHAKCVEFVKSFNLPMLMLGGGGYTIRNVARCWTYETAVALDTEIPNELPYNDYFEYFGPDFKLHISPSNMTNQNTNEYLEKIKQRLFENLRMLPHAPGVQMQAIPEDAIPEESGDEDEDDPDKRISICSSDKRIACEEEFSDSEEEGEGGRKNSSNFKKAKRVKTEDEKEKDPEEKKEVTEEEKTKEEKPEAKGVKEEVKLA
T3 sequence (O15379 whole entry): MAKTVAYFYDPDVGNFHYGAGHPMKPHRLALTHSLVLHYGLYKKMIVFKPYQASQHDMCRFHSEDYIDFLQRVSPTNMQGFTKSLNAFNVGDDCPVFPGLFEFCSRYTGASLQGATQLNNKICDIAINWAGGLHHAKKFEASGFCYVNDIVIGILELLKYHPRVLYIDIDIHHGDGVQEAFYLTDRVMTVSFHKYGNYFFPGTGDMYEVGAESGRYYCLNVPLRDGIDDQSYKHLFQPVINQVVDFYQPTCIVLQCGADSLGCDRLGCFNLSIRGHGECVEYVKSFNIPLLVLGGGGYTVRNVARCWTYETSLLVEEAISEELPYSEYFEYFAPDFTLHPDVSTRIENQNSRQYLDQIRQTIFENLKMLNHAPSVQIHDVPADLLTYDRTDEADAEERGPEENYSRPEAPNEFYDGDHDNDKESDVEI
T3 sequence (Q9Y618 1-899 partner limits assumed): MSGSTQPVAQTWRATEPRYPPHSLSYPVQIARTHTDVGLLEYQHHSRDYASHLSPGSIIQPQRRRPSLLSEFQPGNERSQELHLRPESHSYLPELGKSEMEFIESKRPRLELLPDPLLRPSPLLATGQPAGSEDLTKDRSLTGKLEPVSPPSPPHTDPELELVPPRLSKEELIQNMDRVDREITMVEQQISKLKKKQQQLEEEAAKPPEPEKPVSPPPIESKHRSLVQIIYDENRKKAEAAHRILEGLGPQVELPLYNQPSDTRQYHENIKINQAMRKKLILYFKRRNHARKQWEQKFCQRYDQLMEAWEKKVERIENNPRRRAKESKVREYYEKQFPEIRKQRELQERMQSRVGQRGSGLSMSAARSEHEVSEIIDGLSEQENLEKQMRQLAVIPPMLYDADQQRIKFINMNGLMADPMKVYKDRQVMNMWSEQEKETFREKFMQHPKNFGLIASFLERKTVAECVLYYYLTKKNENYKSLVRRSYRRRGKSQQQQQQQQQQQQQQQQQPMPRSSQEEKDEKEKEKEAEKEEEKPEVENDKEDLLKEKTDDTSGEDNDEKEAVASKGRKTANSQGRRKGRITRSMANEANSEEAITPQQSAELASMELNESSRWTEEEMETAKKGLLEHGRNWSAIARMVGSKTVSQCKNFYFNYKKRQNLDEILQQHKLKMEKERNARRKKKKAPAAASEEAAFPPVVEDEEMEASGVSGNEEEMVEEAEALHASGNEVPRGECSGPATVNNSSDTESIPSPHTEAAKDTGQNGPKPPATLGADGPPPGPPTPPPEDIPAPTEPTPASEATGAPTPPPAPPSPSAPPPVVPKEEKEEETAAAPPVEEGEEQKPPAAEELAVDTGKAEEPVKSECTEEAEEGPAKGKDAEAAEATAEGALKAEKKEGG

By pIC50 is commonly meant −log10 of the IC50, conventionally taken in molar units. `CCC(=O)CCCCC[C@H](NC(=O)C1CC12CCOCC2)c1ncc(-c2cc3ccc(C)nc3cc2OC)[nH]1` (single isomer, unassigned) [Compound 407]: the pIC50 is 9.05 on Recombinant human HDAC1, less than 6.05 against HDAC6, 8.43 in assay [1] and 7.69 at Recombinant human HDAC2.

With `CCC(=O)CCCCC[C@H](NC(=O)[C@H]1CC[C@@]2(CC1)OC(=O)c1cccnc12)c1nnc(-c2cc3ccccc3nc2OC)o1` [Compound 366], the pIC50 at Recombinant human HDAC1 was 7.05; against HDAC6, 5.56; in assay [1], 7.43; at Recombinant human HDAC2, 6.49.

Take `CCC(=O)CCCCC[C@H](NC(=O)[C@H]1CC12CCN(CC1CC1)CC2)c1ncc(-c2ccc3nc(C)ccc3c2)[nH]1` [Compound 393]: the pIC50 at Recombinant human HDAC1 was 10.30; against HDAC6, 6.49; in assay [1] it was 10.30; at Recombinant human HDAC2, 10.00.

Regarding `CCC(=O)CCCCC[C@H](NC(=O)[C@H]1CC[C@@]2(CC1)OC(=O)c1cnccc12)c1ncc(-c2ccccc2)[nH]1` [Compound 373], the pIC50 is 7.02 at Recombinant human HDAC1, 5.00 against HDAC6, 7.73 in assay [1] and 6.37 on Recombinant human HDAC2.

For `CCC(=O)CCCCC[C@H](NCC1CN(C)C1)c1ncc(-c2cc3ccc(C)nc3cc2OC)o1` [Compound 401, (9S)-9-[5-(7-methoxy-2-methylquinolin-6-yl)-1,3-oxazol-2-yl]-9-{[(1-methylazetidin-3-yl)methyl]amino}nonan-3-one], the negative logarithm of the IC50 (pIC50) at Recombinant human HDAC1 is 7.49; at HDAC6, less than 6.05; in assay [1] it was 7.29; at Recombinant human HDAC2, 6.75.

On to `CCC(=O)CCCCC[C@H](NC(=O)[C@H]1CC[C@@]2(CC1)OC(=O)c1ncccc12)c1ncc(-c2ccccc2)[nH]1` [Compound 374], for which the negative logarithm of the IC50 (pIC50) at Recombinant human HDAC1 is 7.03; on HDAC6, 4.95; in assay [1] it was 7.80; on Recombinant human HDAC2, 6.37.

On to `CCC(=O)CCCCCC(CC)(NC(=O)[C@H]1CC12CCN(CC1CC1)CC2)c1nc(-c2cc3ccc(C)nc3cc2OC)c[nH]1` (stereo partly drawn) [Compound 420, (1S)-6-(cyclopropylmethyl)-N-{3-[4-(7-methoxy-2-methylquinolin-6-yl)-1H-imidazol-2-yl]-9-oxoundecan-3-yl}-6-azaspiro[2.5]octane-1-carboxamide], for which the pIC50 is 6.31 at Recombinant human HDAC1, less than 6.05 at HDAC6, 6.48 in assay [1] and 6.48 at Recombinant human HDAC2.

In the case of `CCC(=O)CCCCC[C@H](NCc1ccncc1)c1ncc(-c2cc3ccc(C)nc3cc2OC)[nH]1` [Compound 404], the pIC50 at Recombinant human HDAC1 was 6.43; against HDAC6 it was less than 6.05; in assay [1], 6.30; at Recombinant human HDAC2 it was less than 6.05.

With `CCC(=O)CCCCC[C@H](NC(=O)C1=NOC2(CCN(C)CC2)C1)c1ncc(-c2ccc(Cl)cc2OC)o1` [Compound 390], the pIC50 is 7.74 at Recombinant human HDAC1, 6.51 on HDAC6, 7.40 in assay [1] and 6.80 on Recombinant human HDAC2.

On to `CCC(=O)CCCCC[C@H](NC(=O)[C@H]1CC12CCN(C)CC2)c1ncc(-c2cc3ocnc3cc2OC)o1` [Compound 408], for which the pIC50 is 8.42 on Recombinant human HDAC1, 6.19 at HDAC6, 8.13 in assay [1] and 7.44 on Recombinant human HDAC2.

Consider `CCC(=O)CCCCC[C@H](NC(=O)C1=NOC2(CCN(C)CC2)C1)c1nnc(-c2cc3ccccc3nc2OC)o1` [Compound 370], for which the negative-log IC50 (pIC50) at Recombinant human HDAC1 was 7.97; at HDAC6 it was 5.76; in assay [1], 8.05; at Recombinant human HDAC2 it was 7.38.

On to `CCC(=O)CCCCC[C@H](NC(=O)C1=NOC2(CCN(C(C)C)CC2)C1)c1ncc(-c2ccccc2)[nH]1` [Compound 379], for which the pIC50 at Recombinant human HDAC1 was 7.66; on HDAC6, 5.07; in assay [1] it was 8.32; on Recombinant human HDAC2 it was 7.00.

For `CCC(=O)CCCCC[C@H](NC(=O)CCN1C(=O)C(CC)=NC12CCOCC2)c1ncc(-c2ccccc2)[nH]1` [Compound 384], the pIC50 at Recombinant human HDAC1 was 7.43; against HDAC6, 4.99; in assay [1], 7.90; on Recombinant human HDAC2, 6.81.

Take `CCC(=O)CCCCC[C@H](NC(=O)[C@H]1CC12CCN(C)CC2)c1ncc(-c2cc3ccncc3cc2OC)o1` [Compound 405]: the negative logarithm of the IC50 (pIC50) at Recombinant human HDAC1 is 9.52; against HDAC6, 6.79; in assay [1], 9.15; at Recombinant human HDAC2, 8.70.

For the compound `CCC(=O)CCCCC[C@H](NC(=O)C1=NOC2(CCN(C)CC2)C1)c1ncc(-c2cc3ccc(N(C)C)nc3cc2OC)o1` [Compound 397], the negative logarithm of the IC50 (pIC50) was 8.87 at Recombinant human HDAC1, less than 6.05 against HDAC6, 8.58 in assay [1] and 8.18 on Recombinant human HDAC2.

For `CCC(=O)CCCCC[C@H](NC(=O)[C@H]1CC[C@]2(CC1)OC(=O)c1cccnc12)c1ncc(-c2ccccc2)[nH]1` [Compound 378], the pIC50 on Recombinant human HDAC1 was 7.34; on HDAC6, 4.97; in assay [1] it was 8.15; at Recombinant human HDAC2, 6.66.

`CCC(=O)CCCCC[C@H](NC(=O)C1=NOC2(CCN(C)CC2)C1)c1ncc(-c2cc3ccncc3cc2OC)o1` [Compound 415]: the negative-log IC50 (pIC50) at Recombinant human HDAC1 is 8.48; on HDAC6 it was less than 6.05; in assay [1], 8.11; at Recombinant human HDAC2, 7.48.

Take `CCC(=O)CCCCC[C@H](NC(=O)C1CC12CCOCC2)c1ncc(-c2cc3ccc(C)nc3cc2OC)o1` (single isomer, unassigned) [Compound 410]: the pIC50 on Recombinant human HDAC1 is 7.76; against HDAC6 it was less than 6.05; at Recombinant human HDAC2 it was 6.84.

On to `CCC(=O)CCCCC[C@H](NC(=O)[C@H]1CC[C@@]2(CC1)OC(=O)c1ccncc12)c1ncc(-c2ccccc2)[nH]1` [Compound 372], for which the pIC50 on Recombinant human HDAC1 is 7.03; against HDAC6, 4.99; in assay [1], 7.85; at Recombinant human HDAC2, 6.38.

As for `CCC(=O)CCCCC[C@H](NC(=O)[C@H]1CC[C@@]2(CC1)OC(=O)c1cccnc12)c1ncc(-c2ccccc2)[nH]1` [Compound 375], the pIC50 at Recombinant human HDAC1 is 6.93; at HDAC6, 4.99; in assay [1], 7.70; at Recombinant human HDAC2, 6.32.

In the case of `CCC(=O)CCCCC[C@H](NC(=O)[C@H]1CC12CCN(CC1CC1)CC2)c1ncc(-c2cc3ccc(=O)n(C)c3cc2F)o1` [Compound 400], the figures for the pIC50 on Recombinant human HDAC1, on HDAC6 and on Recombinant human HDAC2 were 8.19, less than 6.05 and 7.40, respectively.

Turning to `CCC(=O)CCCCC[C@H](NC(=O)C1=NOC2(CCN(C(C)C)CC2)C1)c1nnc(-c2cc3ccccc3nc2OC)o1` [Compound 369], the negative-log IC50 (pIC50) is 7.73 at Recombinant human HDAC1, 5.60 on HDAC6 and 7.17 at Recombinant human HDAC2.

Consider `CCC(=O)CCCCC[C@H](NC(=O)C1=NOC2(CCN(S(C)(=O)=O)CC2)C1)c1nnc(-c2cc3ccccc3nc2OC)o1` [Compound 371], for which the negative-log IC50 (pIC50) at Recombinant human HDAC1 was 7.06; against HDAC6, 5.33; at Recombinant human HDAC2 it was 6.54.

Turning to `CCC(=O)CCCCC[C@H](NC(=O)C1CC12CCOCC2)c1ncc(-c2cc3ccc(C)nc3cc2OC)o1` (single isomer, unassigned) [Compound 409], the results for the pIC50 at Recombinant human HDAC1, against HDAC6 and on Recombinant human HDAC2 were 7.98, less than 6.05 and 7.00, respectively.
